Measured values as given in US20210255193A1, “LYSINE REACTIVE PROBES AND USES THEREOF” (The Scripps Research Institute, priority 2017, published 2021).

What was measured:
Assay in all cases: competitive isoTOP-ABPP
Type in all cases: binding
DTYMK Thymidylate kinase = target: T1, DTYMK Thymidylate kinase (Homo sapiens, UniProt P23919); details: 50 uM, in vitro; for R value (DMSO/fragment) for probe 1 labeling: P23919_K118; for isoTOP-ABPP ratio (R) at liganded lysine P23919_K118: sol, 231
T1 construct: isoTOP-ABPP experiments performed in cell lysates (in vitro); endogenous in cells; host or cells: soluble proteome of human cancer cell lines (MDA-MB-231; Ramos and Jurkat also prepared)
T1 sequence (P23919 1-212): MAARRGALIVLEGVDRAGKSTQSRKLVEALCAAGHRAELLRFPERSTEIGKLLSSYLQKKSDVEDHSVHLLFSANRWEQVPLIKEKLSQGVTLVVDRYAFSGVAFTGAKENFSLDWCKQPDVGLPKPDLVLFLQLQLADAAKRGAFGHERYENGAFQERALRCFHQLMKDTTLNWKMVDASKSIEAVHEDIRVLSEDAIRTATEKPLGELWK
How it was run: (§1)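 Cell lysate (0.5 ml) was pre-treated with fragment, 50 μM for activated esters or 100 μM for guanidinylating agents, versus DMSO, then labeled 1 h at ambient temperature with 0.1 mM STP-alkyne. Light/heavy TEV tags attached by CuAAC; R = DMSO/compound MS1 peak-area ratio, median per lysine.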

[1] = target: T2, RPS10 40S ribosomal protein S10 (Homo sapiens, UniProt P46783); details: 50 uM, in vitro; for R value (DMSO/fragment) for probe 1 labeling: P46783_K139
T2 construct: isoTOP-ABPP experiments performed in cell lysates (in vitro); endogenous in cells; host or cells: soluble proteome of human cancer cell lines (MDA-MB-231; Ramos and Jurkat also prepared)
How it was run: as §1

[2] = target: T3, FH Fumarate hydratase, mitochondrial (Homo sapiens, UniProt P07954); details: 50 uM, in vitro; for R value (DMSO/fragment) for probe 1 labeling: P07954_K311; for isoTOP-ABPP ratio (R) at liganded lysine P07954_K311: sol, 231
T3 construct: isoTOP-ABPP experiments performed in cell lysates (in vitro); endogenous in cells; host or cells: MDA-MB-231 soluble lysate
T3 sequence (P07954 45-510): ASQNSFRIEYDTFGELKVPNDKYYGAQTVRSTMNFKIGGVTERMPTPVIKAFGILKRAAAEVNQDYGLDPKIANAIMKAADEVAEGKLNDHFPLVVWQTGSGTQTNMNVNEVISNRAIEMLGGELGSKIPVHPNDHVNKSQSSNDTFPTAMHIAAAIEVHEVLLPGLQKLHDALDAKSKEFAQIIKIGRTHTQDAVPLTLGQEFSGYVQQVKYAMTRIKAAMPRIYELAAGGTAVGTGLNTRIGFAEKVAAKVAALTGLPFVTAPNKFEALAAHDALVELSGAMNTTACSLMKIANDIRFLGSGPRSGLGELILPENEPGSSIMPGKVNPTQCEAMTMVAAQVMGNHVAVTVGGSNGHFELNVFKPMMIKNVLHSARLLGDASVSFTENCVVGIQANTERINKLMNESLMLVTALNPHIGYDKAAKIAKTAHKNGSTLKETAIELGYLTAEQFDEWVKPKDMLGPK
How it was run: as §1

[3] = target: T4, ERO1L ERO1-like protein alpha (Homo sapiens, UniProt Q96HE7); details: 50 uM, in vitro; for R value (DMSO/fragment) for probe 1 labeling: Q96HE7_K413, 231 sol; for isoTOP-ABPP ratio (R) at liganded lysine Q96HE7_K413: sol, 231
T4 construct: isoTOP-ABPP experiments performed in cell lysates (in vitro); endogenous in cells; host or cells: soluble proteome of human cancer cell lines (MDA-MB-231; Ramos and Jurkat also prepared)
T4 sequence (Q96HE7 24-468): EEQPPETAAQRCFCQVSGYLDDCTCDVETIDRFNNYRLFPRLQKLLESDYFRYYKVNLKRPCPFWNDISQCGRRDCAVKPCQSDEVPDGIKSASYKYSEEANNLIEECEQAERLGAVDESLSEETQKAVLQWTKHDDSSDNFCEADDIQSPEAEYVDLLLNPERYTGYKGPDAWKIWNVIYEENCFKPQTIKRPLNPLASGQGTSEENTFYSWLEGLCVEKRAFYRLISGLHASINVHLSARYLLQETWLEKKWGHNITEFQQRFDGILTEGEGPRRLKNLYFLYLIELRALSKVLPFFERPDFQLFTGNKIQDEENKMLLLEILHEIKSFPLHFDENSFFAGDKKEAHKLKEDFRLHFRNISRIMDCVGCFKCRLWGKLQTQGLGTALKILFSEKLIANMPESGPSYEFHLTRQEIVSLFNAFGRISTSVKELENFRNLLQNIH
How it was run: as §1

TTR Transthyretin = target: T5, TTR Transthyretin (Homo sapiens, UniProt P02766); details: 50 uM, in vitro; for R value (DMSO/fragment) for probe 1 labeling: P02766_K35
T5 construct: isoTOP-ABPP experiments performed in cell lysates (in vitro); endogenous in cells; host or cells: MDA-MB-231 soluble lysate
How it was run: as §1

SMILES	R value (DMSO/fragment) for probe 1 labeling (DTYMK Thymidylate kinase; 231 sol)	R value (DMSO/fragment) for probe 1 labeling ([1]; 231 sol)	R value (DMSO/fragment) for probe 1 labeling ([2]; 231 sol)	R value (DMSO/fragment) for probe 1 labeling [3]	R value (DMSO/fragment) for probe 1 labeling (TTR Transthyretin; 231 sol)	isoTOP-ABPP ratio (R) at liganded lysine P23919_K118 (DTYMK Thymidylate kinase)	isoTOP-ABPP ratio (R) at liganded lysine P07954_K311 [2]	isoTOP-ABPP ratio (R) at liganded lysine Q96HE7_K413 [3]	also measured
O=C(Oc1c(F)c(F)c(F)c(F)c1F)C(c1ccccc1)c1ccccc1 [fragment 20, Pentafluorophenyl 2,2-diphenylacetate]	0.9	0.6	1.2	0.9	1.4				
O=C(Oc1c(F)c(F)c(F)c(F)c1F)c1cc(C(F)(F)F)cc(C(F)(F)F)c1 [fragment 21, Pentafluorophenyl 3,5-bis(trifluoromethyl)benzoate]	0.8	0.5	1.3	1.4	2.6				
COc1cc(CCC(=O)Oc2ccc([N+](=O)[O-])cc2[N+](=O)[O-])cc(OC)c1OC [fragment 33, 2,4-Dinitrophenyl 3-(3,4,5-trimethoxyphenyl)propanoate]									isoTOP-ABPP reactivity ratio at lysine P23919_K118 (DTYMK Thymidylate kinase; 231 sol): 6.6; isoTOP-ABPP reactivity ratio at lysine P46783_K139 ([1]; 231 sol): 0.7; isoTOP-ABPP reactivity ratio at lysine P07954_K311 ([2]; 231 sol): 2.2; isoTOP-ABPP reactivity ratio at lysine P02766_K35 (TTR Transthyretin; 231 sol): 2.7
O=C(Oc1ccc([N+](=O)[O-])cc1[N+](=O)[O-])c1ccc(-c2ccccc2)cc1 [fragment 37, 2,4-Dinitrophenyl [1,1′-biphenyl]-4-carboxylate]						0.9	1.2	2.4	isoTOP-ABPP ratio (R) at liganded lysine P46783_K139 ([1]; sol, 231): 0.6
CC(C)(C)OC(=O)NCCCC(=O)Oc1ccc([N+](=O)[O-])cc1[N+](=O)[O-] [fragment 41, 2,4-Dinitrophenyl 4-((tert-butoxycarbonyl)amino)butanoate]						0.8	1.0	1.7	isoTOP-ABPP ratio (R) at liganded lysine P02766_K35 (TTR Transthyretin; sol, 231): 3.4
